How the values were obtained:
Experiment in all cases: relative viability (nuclei count vs DMSO), 5 days (fraction); higher = more cells survive
[1] = compound: O=C(Nc1c[nH]nc1-c1nc2ccc(CN3CCOCC3)cc2[nH]1)NC1CC1 [AT9283] + Nc1ncn([C@H]2C[C@H](O)[C@@H](CO)O2)c(=O)n1 [Decitabine] (partner 2 µM)
Procedure, shortened: (§1)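 Values are medians from duplicate plates. Each reflects relative viability, defined as the nuclei count of treated wells over that of vehicle wells. Lung cancer cell lines in 1536-well plates were pin-tool dosed one day after seeding with one drug alone or with a fixed anchor-drug dose plus five library-drug doses (not always all listed) in √10 steps, then fixed, stained and imaged at 4× after 5 days.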

[2] = compound: C#Cc1cccc(Nc2ncnc3cc(OCCOC)c(OCCOC)cc23)c1 [Erlotinib] + CC(C)C[C@H](NC(=O)[C@H](Cc1ccccc1)NC(=O)c1cnccn1)B(O)O [Bortezomib] (partner 0.002 µM)
Procedure, shortened: as §1

[3] = compound: O=C(Nc1c[nH]nc1-c1nc2ccc(CN3CCOCC3)cc2[nH]1)NC1CC1 [AT9283] + COc1cccc2cc(-c3nc([C@H]4CC[C@H](C(=O)O)CC4)n4ncnc(N)c34)[nH]c12 [OSI-027] (partner 0.5 µM)
Procedure, shortened: as §1

[4] = compound: O=C(Nc1c[nH]nc1-c1nc2ccc(CN3CCOCC3)cc2[nH]1)NC1CC1 [AT9283] + Cc1nc(NC(=O)N2CCC[C@H]2C(N)=O)sc1-c1ccnc(C(C)(C)C(F)(F)F)c1 [Alpelisib] (partner 2 µM)
Procedure, shortened: as §1

[5] = compound: C#Cc1cccc(Nc2ncnc3cc(OCCOC)c(OCCOC)cc23)c1 [Erlotinib] + CCNC(=O)c1noc(-c2cc(C(C)C)c(O)cc2O)c1-c1ccc(CN2CCOCC2)cc1 [Luminespib] (partner 0.01 µM)
Procedure, shortened: as §1

Cell Line | relative viability ([1]; first compound 0.003 µM) | relative viability ([1]; first compound 0.03 µM) | relative viability ([1]; first compound 0.09487 µM) | relative viability ([1]; first compound 0.3 µM) | relative viability ([2]; first compound 0.02 µM) | relative viability ([2]; first compound 0.2 µM) | relative viability ([2]; first compound 0.6325 µM) | relative viability ([2]; first compound 2 µM) | relative viability ([3]; first compound 0.003 µM) | relative viability ([3]; first compound 0.03 µM) | relative viability ([3]; first compound 0.09487 µM) | relative viability ([3]; first compound 0.3 µM) | relative viability ([4]; first compound 0.003 µM) | relative viability ([4]; first compound 0.03 µM) | relative viability ([4]; first compound 0.09487 µM) | relative viability ([4]; first compound 0.3 µM) | relative viability ([5]; first compound 0.02 µM) | relative viability ([5]; first compound 0.2 µM) | relative viability ([5]; first compound 0.6325 µM) | relative viability ([5]; first compound 2 µM)
HCC-78 | 0.548 | 0.626 | 0.428 | 0.322 | 0.452 | 0.333 | 0.496 | 0.302 | 0.519 | 0.304 | 0.271 | 0.276 | 0.286 | 0.275 | 0.165 | 0.18 | – | – | – | –
HCC-366 | 0.337 | 0.299 | 0.141 | 0.0851 | – | 1.08 | 1.1 | 1.06 | 0.834 | 0.845 | 0.048 | 0.0995 | 0.48 | 0.17 | 0.122 | 0.0346 | – | – | – | –
HCC-827 | 0.235 | 0.234 | 0.258 | 0.214 | 0.526 | 0.343 | 0.276 | 0.35 | 0.694 | 0.647 | 0.597 | 0.181 | 0.96 | 0.856 | 0.349 | 0.212 | 0.238 | 0.218 | 0.211 | 0.182
HOP-62 | 0.212 | 0.217 | 0.152 | 0.165 | 1.08 | 0.5 | 0.316 | 1.02 | 0.868 | 0.792 | 0.53 | 0.253 | 1.11 | 0.991 | 0.207 | 0.219 | 0.988 | 0.949 | 0.855 | 0.881
IA-LM | – | – | – | – | 0.833 | – | 0.977 | 0.86 | – | – | – | – | 0.891 | 0.418 | 0.199 | 0.0959 | – | – | – | –
LK-2 | 0.215 | 0.116 | 0.113 | 0.0972 | – | – | – | – | 0.2 | 0.151 | 0.156 | 0.143 | 0.936 | 0.379 | 0.21 | 0.236 | 0.151 | 0.166 | 0.203 | 0.15
NCI-H358 | 0.219 | 0.143 | 0.102 | 0.0856 | – | – | – | – | 0.899 | 0.186 | 0.0868 | 0.0708 | 0.901 | 0.171 | 0.163 | 0.152 | 0.262 | 0.225 | 0.31 | 0.12
NCI-H522 | 0.67 | 0.607 | 0.569 | 0.479 | – | – | – | – | 0.665 | 0.57 | 0.549 | 0.567 | – | – | – | – | 1.16 | 0.954 | 1.15 | 0.965
NCI-H1299 | – | – | – | – | 1.11 | 1.05 | 0.997 | 1 | – | – | – | – | 1.08 | 1.04 | 0.476 | 0.352 | – | – | – | –
NCI-H1395 | 0.819 | 0.604 | 0.42 | 0.385 | – | – | – | – | 0.523 | 0.541 | 0.356 | 0.363 | 1 | 0.804 | 0.409 | 0.431 | 0.919 | 0.613 | 0.676 | 0.671
NCI-H1563 | – | – | – | – | 0.905 | 0.787 | 0.75 | 0.754 | 0.769 | 0.748 | 0.645 | 0.525 | 1.08 | 0.81 | 0.732 | 0.628 | 0.527 | 0.495 | 0.512 | 0.477
NCI-H1623 | – | – | – | – | – | – | – | – | 0.438 | 0.448 | 0.358 | 0.381 | – | – | – | – | 0.414 | 0.425 | 0.352 | 0.336
NCI-H1648 | 0.515 | 0.503 | 0.409 | 0.303 | – | – | – | – | 0.277 | 0.259 | 0.283 | 0.246 | – | – | – | – | – | – | – | –
NCI-H1650 | 0.565 | 0.499 | 0.387 | 0.238 | 0.204 | 0.204 | 0.176 | 0.178 | 0.838 | 0.575 | 0.357 | 0.227 | – | – | – | – | 0.218 | 0.188 | 0.206 | 0.21
NCI-H1703 | – | – | – | – | 0.296 | 0.346 | 0.409 | 0.238 | – | – | – | – | 0.361 | 0.214 | 0.174 | 0.223 | – | – | – | –
NCI-H1793 | 0.498 | 0.469 | 0.283 | 0.266 | – | – | – | – | 0.278 | 0.367 | 0.188 | 0.206 | 0.642 | 0.871 | 0.363 | 0.254 | 0.167 | 0.19 | 0.169 | 0.125
NCI-H1944 | 0.415 | 0.388 | 0.212 | 0.267 | – | – | – | – | 0.391 | 0.291 | 0.201 | 0.229 | 0.792 | 0.621 | 0.255 | 0.275 | 0.813 | 0.471 | 0.609 | 0.434
NCI-H2170 | 0.466 | 0.366 | 0.228 | 0.156 | – | – | – | – | 0.663 | 0.607 | 0.298 | 0.172 | 0.806 | 0.638 | 0.205 | 0.217 | 0.685 | 0.413 | 0.743 | 0.398
NCI-H2228 | – | – | – | – | 1.06 | 1.03 | 1.02 | 0.8 | 0.585 | 0.648 | 0.355 | 0.126 | 0.831 | 0.676 | 0.176 | 0.136 | 0.151 | 0.131 | 0.149 | 0.121
NCI-H2342 | 0.653 | 0.766 | 0.655 | 0.455 | – | – | – | – | 0.605 | 0.576 | 0.508 | 0.413 | – | – | – | – | 0.731 | 0.609 | 0.573 | 0.739
SK-MES-1 | 0.396 | 0.334 | 0.306 | 0.138 | – | – | – | – | 0.74 | 0.619 | 0.215 | 0.197 | 0.807 | 0.859 | 0.509 | 0.173 | 0.77 | 0.453 | 0.486 | 0.461
SW 900 | 0.422 | 0.442 | 0.349 | 0.232 | – | – | – | – | 0.718 | 0.703 | 0.388 | 0.229 | – | – | – | – | 0.201 | 0.172 | 0.178 | 0.173

Source: the supplement of paper PMC10307832
